From US9561278B2, “Derivatized hyperbranched polyglycerols” (THE UNIVERSITY OF BRITISH COLUMBIA, priority 2010, dated 2017)
In brackets after ≈: the same amount, converted by molar mass.

Tests used:
[1] = cited from earlier work
[2] = In vitro cisplatin release by dialysis; assay type: physicochemical; conditions: PBS, 37° C.
Description: Cisplatin was bound to the carboxylate modified HPGs as described above with final polymer and cisplatin concentrations of 10 and 1 mg/mL, respectively. Into 7000 MWCO Slide-A-Lyzer mini dialysis units (Thermo Scientific, Rockford, Ill.), 20 μL of cisplatin bound polymer solution, or a 1 mg/mL solution of free cisplatin, were added and the samples were dialyzed at 37° C. with stirring against 4 L of 1 mM PBS adjusted to pHs of 4.5, 6.0, and 7.4 or synthetic urine at pH 7.0. Synthetic urine (Surine) was purchased from Dyna-Tek Industries (Lenexa, Kans.). At predetermined time points, three dialysis units were removed from the release media, and the entire contents were removed with three washings of the dialysis unit followed by dilution to 1 mL with fresh release media. The cisplatin concentration of contents of the dialysis units was determined by OPDA colorimetric assay. The cumulative percent drug released was calculated by subtracting the amount of drug remaining from the initial amount of drug in the dialysis bag at the beginning of the experiment. The data were expressed as cumulative percentage of drug released as a function of time.

[3] = tested on: KU-7-luc bladder cancer cells; test: Cytotoxicity evaluation, MTS cell proliferation assay; assay type: cell-based; conditions: cisplatin concentration
Description: Cytotoxicity studies were performed using the MTS cell proliferation assay (Promega, Madison, Wis.). […] In this study, KU-7-luc bladder cancer cells, kindly provided by Dr. M. Tachibana (Keio University, Tokyo, Japan). The cells were plated at 5000 cells/well into 96-well plates in 180 μL of Dulbecco's modified Eagle (DMEM) medium (Invitrogen Canada, Inc., Burlington, ON) supplemented with 10% fetal bovine serum (FBS) (Invitrogen Canada, Inc., Burlington, ON), 1% penicillin-streptomycin, and 1% L-glutamine and allowed to grow for 24 h at 37° C. in 5% CO2 to reach approximately 80% confluence for cytotoxicity assays. Cells were then incubated for 2 or 72 h with HPGs alone, ranging from 0.01-100 mg/mL, or free cisplatin or cisplatin-loaded HPGs with drug concentrations ranging from 0.01-100 μg/mL. After treatment, the cells were washed twice with Hank's balanced salt solution (HBSS) and 180 μL of fresh culture media was added into each well and cells were allowed to grow for 72 h. Proliferation of these cells was measured using a CellTiter 96 aqueous non-radioactive cell proliferation assay (Promega, Madison, Wis.) as described previously (Mugabe, C.; Hadaschik, B. A.; Kainthan, R. K.; Brooks, D. E.; So, A. I.; Gleave, M. E.; Burt, H. M. BJU Int. 2009, 103, 978-986). […] The absorbance was measured at 490 nm with a reference of 620 nm using a microplate reader.

Row | SMILES | aqueous solubility [1] [µg/mL] | time to 100% complete release [2] [h] | IC50 ([3]; 2 h incubation) | IC50 ([3]; 72 h incubation) [µg/mL]
1 | CC(=O)O[C@@]12CO[C@@H]1C[C@H](O)[C@@]1(C)C(=O)[C@H](O)C3=C(C)[C@@H](OC(=O)[C@H](O)[C@@H](NC(=O)OC(C)(C)C)c4ccccc4)C[C@@](O)([C@@H](OC(=O)c4ccccc4)[C@H]21)C3(C)C [DTX, docetaxel] | ~7 (≈ 8.66 µM) | – | – | –
2 | N.N.[Cl][Pt][Cl] [free cisplatin, cisplatin] | – | ≤ 7 | approximately 10 μg/mL | 1
